# Measurements from patent US20060110594A1, “Polymer-coated substrates for binding biomolecules and methods of making and using thereof” (priority 2004, published 2006).
# Where “and” joins values, the source holds several entries; their conditions need not be identical. Equal entries are not always repeated. Where two headings read alike, the source gives them in different places.
# Tests used:
# streptavidin = streptavidin (Streptomyces avidinii, UniProt P22629); assay: Small molecule binding to streptavidin immobilized on EMA, Corning LID; details: for signal-to-noise ratio: binding to streptavidin immobilized on EMA
# Sequence of streptavidin (P22629 25-183, species assumed): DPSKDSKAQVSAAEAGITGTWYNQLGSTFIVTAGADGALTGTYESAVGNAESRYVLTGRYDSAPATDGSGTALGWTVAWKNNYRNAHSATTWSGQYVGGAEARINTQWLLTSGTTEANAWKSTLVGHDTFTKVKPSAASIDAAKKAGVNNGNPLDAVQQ
# Procedure: Streptavidin was immobilized on an EMA coated LID microplate by incubating the wells with a solution of 25 ug/mL of the protein in an acetate buffer (20 mM, pH 5.5) for 15 minutes. As negative controls, additional wells were blocked with ethanolamine. The binding of the small molecule fluorescein-biotin (“Fl-biotin”, 831 Da) was monitored as a function of time in the LID instrument. A 100 nM solution of Fl-biotin in PBS was introduced into each well and allowed to bind for several minutes. […] The data have been corrected for bulk index of refraction effects by subtracting out the response from the negative control well. […] This experiment was repeated in each column of the plate with similar results.
# human serum albumin = human serum albumin (Homo sapiens, UniProt P02768); assay: Drug binding to human serum albumin immobilized on EMA, Corning LID
# Sequence of human serum albumin (P02768 25-609): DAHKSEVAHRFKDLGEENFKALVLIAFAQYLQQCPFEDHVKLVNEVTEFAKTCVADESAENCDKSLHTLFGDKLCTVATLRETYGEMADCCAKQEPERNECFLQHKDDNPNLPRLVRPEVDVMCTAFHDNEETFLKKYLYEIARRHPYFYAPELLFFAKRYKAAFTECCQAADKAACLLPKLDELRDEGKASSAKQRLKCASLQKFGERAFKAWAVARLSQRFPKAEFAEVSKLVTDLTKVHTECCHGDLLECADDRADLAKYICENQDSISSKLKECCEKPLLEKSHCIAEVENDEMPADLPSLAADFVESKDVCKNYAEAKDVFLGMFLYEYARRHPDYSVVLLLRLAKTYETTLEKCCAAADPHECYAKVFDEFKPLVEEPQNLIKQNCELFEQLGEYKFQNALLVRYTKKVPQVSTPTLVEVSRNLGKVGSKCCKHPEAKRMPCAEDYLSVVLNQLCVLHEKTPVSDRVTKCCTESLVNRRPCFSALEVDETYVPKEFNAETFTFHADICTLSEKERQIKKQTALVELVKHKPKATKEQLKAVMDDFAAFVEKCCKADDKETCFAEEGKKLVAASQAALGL
# Procedure: HSA was immobilized on the sensor surface by incubating the wells with a solution of 60 ug/mL of the protein in an acetate buffer (20 mM, pH 5.5) for 15 minutes. As negative controls, additional wells were blocked with ethanolamine. After thorough washing with PBS buffer and water, residual reactive groups were blocked by incubating the wells for 10 minutes with ethanolamine (200 mM, pH 9.2).
# Lys-D-Ala-D-Ala [1] = assay: Vancomycin binding to immobilized Lys-D-Ala-D-Ala, SPR (Biacore 2000); details: for Total Signal: 5 μM vancomycin; for Nonspecific Binding: 5 uM vancomycin + 500 μM DADA; for Kd: Scatchard analysis, vancomycin 10, 5, 2.5, 1.25 μM
# Procedure: (Vancomycin is an antibiotic that binds to the C-terminal D-Ala-D-Ala group of Gram-positive bacterial cell wall precursors and inhibits cell wall synthesis.) Experiments were performed on the Biacore 2000 SPR instrument using gold sensor chips modified with either EMA or poly(triethylene glycol-co-maleic anhydride) (“PEG-MA”); for comparison, experiments were also performed on Biacore's CM5 surface.
# Lys-D-Ala-D-Ala [2] = details: measured in solution (ref 12); read-out: Kd reported in the literature; cited from earlier work
# Lys-D-Ala-D-Ala [3] = assay: Vancomycin competitive inhibition binding assay, SPR
# Procedure: (§1) To test the specificity of the interaction, a competitive binding assay was performed in which the surface was incubated with a fixed (5 μM) concentration of vancomycin in the presence of varying concentrations of the peptide Lys-D-Ala-D-Ala. […] Similar competitive inhibition experiments were performed on a Corning LID microplate coated with EMA (see FIG. 7).
# Lys-D-Ala-D-Ala [4] = assay: Vancomycin competitive inhibition on EMA coated microplate, Corning LID; type: binding; details: in the presence of excess (250 uM) Lys-D-Ala-D-Ala
# Procedure: as §1
# [5] = isoelectric point, listed property; cited from earlier work
# [6] = Streptavidin binding to immobilized biotin on EMA coated microplate, Corning LID; details: streptavidin 100 nM in PBS, six wells
# Procedure: The performance of EMA in a small molecule/protein binding assay was tested using a biotin/streptavidin model system and Corning LID detection. Biotin was immobilized in rows A-G of a Corning LID microplate by incubating each well with 75 uL of a 10 uM solution of biotin-peo-amine in borate buffer (150 mM, pH 9) for 30 minutes; row H was reacted with ethanolamine (200 mM in borate buffer, pH 9) to serve as a negative control. The plate was docked in the LID instrument and the binding of streptavidin (100 nM in phosphate buffered saline (PBS)) was monitored as a function of time as shown in FIG. 4A.
# [7] = Streptavidin/BSA binding to biotin immobilized on MAMVE and SMA, Biacore SPR; details: streptavidin 1 μM; biotin-groups immobilized on MAMVE; BSA as control
# Excerpt: Biacore SPR detection was used for these experiments in which biotin was immobilized on the surfaces by injecting solutions of 5-(biotinamido)pentylamine over each surface. […] Non-specific binding of proteins to surfaces such as those presenting hydrophobic aromatic groups is well documented; the inertness of surfaces presenting —OCH3 groups to non-specific adsorption has also been observed (13).
compound,measurement,setting,value
O=C(O)CCCC[C@@H]1SC[C@@H]2NC(=O)N[C@@H]21 [biotin],response for binding to immobilized streptavidin,"streptavidin; EMA coated LID microplate, Fl-biotin 100 nM in PBS, relative to negative control well",~5 pm
same,signal-to-noise ratio,streptavidin,~50
C[C@H]1O[C@@H](O[C@H]2[C@@H](O)C[C@H](O[C@H]3[C@@H](O)C[C@H](O[C@H]4CC[C@@]5(C)[C@H](CC[C@@H]6[C@@H]5CC[C@]5(C)[C@@H](C7=CC(=O)OC7)CC[C@]65O)C4)O[C@@H]3C)O[C@@H]2C)C[C@H](O)[C@@H]1O [digitoxin],lowest concentration successfully detected,human serum albumin,6 µM
O=C(CCCCCNC(=O)CCCC[C@@H]1SC[C@@H]2NC(=O)N[C@@H]21)NCCCCCNC(=S)Nc1ccc2c(c1)C(=O)OC21c2ccc(O)cc2Oc2cc(O)ccc21 [fluorescein-biotin],signal-to-noise ratio,streptavidin,> 200
CN[C@H](CC(C)C)C(=O)N[C@H]1C(=O)N[C@@H](CC(N)=O)C(=O)N[C@H]2C(=O)N[C@H]3C(=O)N[C@H](C(=O)N[C@H](C(=O)O)c4cc(O)cc(O)c4-c4cc3ccc4O)[C@H](O)c3ccc(c(Cl)c3)Oc3cc2cc(c3O[C@@H]2O[C@H](CO)[C@@H](O)[C@H](O)[C@H]2O[C@H]2C[C@](C)(N)[C@H](O)[C@H](C)O2)Oc2ccc(cc2Cl)[C@H]1O [vancomycin],Total Signal,Lys-D-Ala-D-Ala [1]; CM5 surface,1251 RU
same,Nonspecific Binding,Lys-D-Ala-D-Ala [1]; CM5 surface,3 RU
same,Kd,Lys-D-Ala-D-Ala [1]; CM5 surface,280 nM and 270 nM
same,Total Signal,Lys-D-Ala-D-Ala [1]; EMA surface,2538 RU
same,Nonspecific Binding,Lys-D-Ala-D-Ala [1]; EMA surface,290 RU
same,Kd,Lys-D-Ala-D-Ala [1]; EMA surface,340 nM
same,Total Signal,Lys-D-Ala-D-Ala [1]; PEG-MA surface,2006 RU
same,Nonspecific Binding,Lys-D-Ala-D-Ala [1]; PEG-MA surface,128 RU
same,Kd,Lys-D-Ala-D-Ala [1]; PEG-MA surface,1300 nM
same,Kd,Lys-D-Ala-D-Ala [2],~1000 nM
same,"amount of nonspecific binding, lower on PEG-MA relative to EMA",Lys-D-Ala-D-Ala [3]; PEG-MA relative to EMA,~2 ×
same,binding specificity,"Lys-D-Ala-D-Ala [3]; both maleic anhydride copolymer surfaces tested (EMA, PEG-MA), 5 μM vancomycin",> 90%
same,reduction of vancomycin binding signal,Lys-D-Ala-D-Ala [4],83%
"Lysozyme: protein immobilized on EMA, 14 kDa",pI,[5],9.5
streptavidin: protein binding biotin; 60 kDa,average response,[6],465 pm
same,pI,[5],5
same,specificity of binding,[7],specific
